From PubChem BioAssay (NCI) come the findings set out here.

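48-hour exposure; five concentrations; linearly interpolated endpoints. GI50 = concentration required for 50% inhibition of growth. TGI: total growth inhibition.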

Among the test systems are A549 NSCLC; CAKI-1 renal; HOP-62 NSCLC; K-562 leukemia; M14 melanoma; OVCAR-4 ovarian; RPMI-8226 leukemia; SF-268 CNS; SW-620 colon; UO-31 renal.
Experiment in all cases: inhibition of tumour cell growth, NCI panel, 48 h

For `c1ccc2c(c1)nc1n2CCSC1`, the TGI in the assay on A549 NSCLC, in the assay on CAKI-1 renal, in the assay with HOP-62 NSCLC, in the assay with K-562 leukemia, in the assay on M14 melanoma and with OVCAR-4 ovarian was above 100 µM each time. Further, the TGI in the assay with RPMI-8226 leukemia, with SF-268 CNS, with SW-620 colon and with UO-31 renal was above 100 µM in each case.

As to `NCCCCNCCCNC(=O)c1nc(-c2csc(CCN)n2)sc1Cl`, the TGI with A549 NSCLC, in the assay with CAKI-1 renal, in the assay with HOP-62 NSCLC, in the assay on K-562 leukemia, in the assay with M14 melanoma and in the assay with OVCAR-4 ovarian was above 100 µM throughout. The TGI with RPMI-8226 leukemia, in the assay on SF-268 CNS, with SW-620 colon and with UO-31 renal was above 100 µM each time.

In the case of `CSC1=NS(=O)(=O)c2cc(C(=O)NN(C)C(=O)c3cc4c(cc3Cl)SC(SC)=NS4(=O)=O)c(Cl)cc2S1`, the TGI with A549 NSCLC, with CAKI-1 renal, in the assay with HOP-62 NSCLC, in the assay on K-562 leukemia, in the assay on M14 melanoma and with OVCAR-4 ovarian was above 10 µM throughout. Also, the TGI in the assay on RPMI-8226 leukemia, in the assay with SF-268 CNS, in the assay with SW-620 colon and in the assay with UO-31 renal was above 10 µM in each case.

Turning to `COC(=O)[C@@H]1C[C@@]2(C3C=CN(C(=O)C(F)(F)F)C=C3)c3ccccc3N(C(=O)C(F)(F)F)[C@H]2N1C(=O)OC`, the TGI with A549 NSCLC, with CAKI-1 renal, with HOP-62 NSCLC, in the assay on K-562 leukemia, with M14 melanoma and in the assay on OVCAR-4 ovarian was above 100 µM throughout. Also, the TGI in the assay with RPMI-8226 leukemia, with SF-268 CNS, with SW-620 colon and in the assay on UO-31 renal was above 100 µM in each case.

On to `COc1cc2c(/C=C3/C(=O)N(c4ccccc4)c4ccccc43)c(Cl)[nH]c2cc1C`, for which the TGI is above 38.4 µM with A549 NSCLC; above 59.5 µM in the assay with CAKI-1 renal; above 23.6 µM in the assay on HOP-62 NSCLC; above 100 µM in the assay on K-562 leukemia; 12.9 µM with M14 melanoma; 6.55 µM with OVCAR-4 ovarian. The TGI was 7.01 µM in the assay with RPMI-8226 leukemia, above 53.8 µM in the assay with SF-268 CNS, above 100 µM in the assay on SW-620 colon and above 26.9 µM in the assay with UO-31 renal.

With `COc1ccc2c(c1)/c(=C/c1ccc(N(C)C)cc1)c1cc(-c3ccccc3)[n+](C)n12`, the TGI with A549 NSCLC was 5.07 µM; with CAKI-1 renal it was 5.64 µM; with HOP-62 NSCLC it was 2.71 µM; with M14 melanoma, 1.36 µM; with OVCAR-4 ovarian, 2.83 µM; in the assay on SF-268 CNS, 1.1 µM. Besides, the TGI was found to be 1.97 µM in the assay with SW-620 colon and 3.28 µM in the assay on UO-31 renal. The results for the GI50 with K-562 leukemia and in the assay with RPMI-8226 leukemia were 48.7 nM and 55.5 nM, respectively.

With `CN(Cc1cnc2nc(N)nc(N)c2n1)c1ccc(C(=O)NC(CCC(=O)NC(P(=O)(O)O)P(=O)(O)O)C(=O)O)cc1` (stereo not given), the TGI is above 100 µM in the assay with A549 NSCLC; 29.8 µM with CAKI-1 renal; above 100 µM in the assay with HOP-62 NSCLC; above 100 µM in the assay with K-562 leukemia; above 100 µM with M14 melanoma; above 100 µM in the assay on OVCAR-4 ovarian. The TGI was above 100 µM in the assay on RPMI-8226 leukemia, above 100 µM in the assay with SF-268 CNS, 28.3 µM in the assay with SW-620 colon and above 100 µM in the assay on UO-31 renal.

As to `C/C(O)=C/c1nc2ccc([N+](=O)[O-])cc2nc1/C=C(/C)O`, the TGI in the assay with A549 NSCLC, in the assay with CAKI-1 renal, with HOP-62 NSCLC, in the assay on K-562 leukemia, in the assay with M14 melanoma and with OVCAR-4 ovarian was above 100 µM in each case. For the same compound, the TGI with RPMI-8226 leukemia is 65.1 µM; with SF-268 CNS, above 100 µM; in the assay with SW-620 colon it was above 100 µM; with UO-31 renal it was above 100 µM.

For the compound `Cc1c(-c2ccccc2)c(C#N)c2nnc(C(N)=O)c(N)n12`, the TGI in the assay with A549 NSCLC, in the assay with CAKI-1 renal, in the assay on HOP-62 NSCLC, with K-562 leukemia, in the assay on M14 melanoma and in the assay with OVCAR-4 ovarian was above 100 µM in each case. Further, the TGI with RPMI-8226 leukemia, in the assay with SF-268 CNS, in the assay on SW-620 colon and in the assay with UO-31 renal was above 100 µM throughout.

Regarding `COc1cc(C2SCC(=O)N2c2ccc(Oc3ccc(Cl)cc3)c(Cl)c2)cc(OC)c1OC` (stereo not given), the TGI was 69.2 µM with A549 NSCLC; 33.6 µM with CAKI-1 renal; 35.2 µM with HOP-62 NSCLC; above 100 µM with K-562 leukemia; 83.1 µM in the assay on M14 melanoma; above 100 µM in the assay with OVCAR-4 ovarian. The TGI in the assay with RPMI-8226 leukemia is above 100 µM; in the assay with SF-268 CNS, 31 µM; with SW-620 colon, 58.3 µM; with UO-31 renal it was 91.3 µM.

For the compound `CN(C)CCNc1ncnc2nc(-c3ccc4ccccc4c3)[nH]c12`, the TGI with A549 NSCLC, with CAKI-1 renal, in the assay on HOP-62 NSCLC, with K-562 leukemia, in the assay on M14 melanoma and in the assay on OVCAR-4 ovarian was above 100 µM in each case. The TGI in the assay on RPMI-8226 leukemia, in the assay on SF-268 CNS, with SW-620 colon and with UO-31 renal was above 100 µM in each case.

For `Cn1nc(S(N)(=O)=O)s/c1=N/C(N)=S`, the TGI in the assay with A549 NSCLC, in the assay on CAKI-1 renal, in the assay on HOP-62 NSCLC, in the assay on K-562 leukemia, in the assay on M14 melanoma and with OVCAR-4 ovarian was above 100 µM throughout. Besides, the TGI in the assay with RPMI-8226 leukemia, in the assay on SF-268 CNS, with SW-620 colon and in the assay with UO-31 renal was above 100 µM each time.

On to `COc1ccc(OC)c2c1C1CCC(=O)N1CN2C(C)=O` (stereo not given), for which the TGI in the assay on A549 NSCLC, with CAKI-1 renal, with HOP-62 NSCLC, in the assay on K-562 leukemia, in the assay on M14 melanoma and in the assay on OVCAR-4 ovarian was above 100 µM each time. Also, the TGI in the assay on RPMI-8226 leukemia, in the assay on SF-268 CNS, with SW-620 colon and in the assay on UO-31 renal was above 100 µM each time.

Take `NNc1nncn1N`: the TGI in the assay on A549 NSCLC was above 100 µM; in the assay on CAKI-1 renal, above 100 µM; in the assay on HOP-62 NSCLC, above 100 µM; in the assay on K-562 leukemia, above 100 µM; with M14 melanoma, above 100 µM; in the assay on OVCAR-4 ovarian, above 96.7 µM. In addition, the TGI with RPMI-8226 leukemia, in the assay with SF-268 CNS, with SW-620 colon and in the assay with UO-31 renal was above 100 µM in each case.

With `O=c1oc2ccc(Cl)cc2cc1-c1cn2cc(Cl)ccc2n1`, the TGI in the assay on A549 NSCLC is above 87.8 µM; in the assay with CAKI-1 renal it was above 100 µM; with HOP-62 NSCLC, above 100 µM; in the assay on K-562 leukemia, above 100 µM; in the assay with M14 melanoma, above 100 µM; with OVCAR-4 ovarian, above 100 µM. Further, the TGI in the assay with RPMI-8226 leukemia, with SF-268 CNS, in the assay on SW-620 colon and with UO-31 renal was above 100 µM throughout.

As to `CC(C)CNC(=O)Cn1c(-c2ccccc2)cc2ccccc21`, the TGI in the assay on A549 NSCLC, in the assay on CAKI-1 renal, in the assay on HOP-62 NSCLC, in the assay with K-562 leukemia, in the assay on M14 melanoma and with OVCAR-4 ovarian was above 100 µM throughout. The TGI in the assay on RPMI-8226 leukemia, in the assay with SF-268 CNS, with SW-620 colon and with UO-31 renal was above 100 µM in each case.

For `[N-]=[N+]=Nc1ccc(CNc2cc(=O)[nH]c(=O)[nH]2)cc1`, the TGI with A549 NSCLC, in the assay on CAKI-1 renal, in the assay on HOP-62 NSCLC, in the assay with K-562 leukemia, with M14 melanoma and in the assay with OVCAR-4 ovarian was above 100 µM throughout. Further, the TGI with RPMI-8226 leukemia, in the assay with SF-268 CNS, in the assay on SW-620 colon and in the assay on UO-31 renal was above 100 µM throughout.

As for `Cc1c2c(OCCCCN3CCN(c4ncccn4)CC3)nn(C)c(=O)c2c(C)n1-c1ccccc1`, the TGI in the assay with A549 NSCLC was 40.9 µM; with CAKI-1 renal, 35.3 µM; with HOP-62 NSCLC, 57.8 µM; in the assay with K-562 leukemia, above 100 µM; in the assay with M14 melanoma, 35.9 µM; in the assay with OVCAR-4 ovarian, 39.1 µM. Further, the TGI in the assay with RPMI-8226 leukemia was found to be 74.4 µM; in the assay on SF-268 CNS, 34.3 µM; in the assay with SW-620 colon, 69.4 µM; with UO-31 renal, 30.8 µM.

For `CC1(COS(=O)(=O)OCC2(C)COS(=O)(=O)OC2)COS(=O)(=O)OC1`, the TGI in the assay on A549 NSCLC, in the assay with CAKI-1 renal, in the assay with HOP-62 NSCLC, in the assay on K-562 leukemia, with M14 melanoma and in the assay on OVCAR-4 ovarian was above 100 µM each time. The TGI in the assay with RPMI-8226 leukemia is above 50.1 µM; with SF-268 CNS, above 100 µM; in the assay with SW-620 colon, above 100 µM; with UO-31 renal, above 100 µM.

For `COc1ccc(/C=C2\N=C(c3ccccc3)N(C3Nc4cc5c(cc4S3)NC(N3C(=O)/C(=C/c4ccc(OC)cc4)N=C3c3ccccc3)S5)C2=O)cc1` (stereo not given), the TGI in the assay with A549 NSCLC, in the assay with CAKI-1 renal, in the assay with HOP-62 NSCLC, in the assay on K-562 leukemia, in the assay on M14 melanoma and with OVCAR-4 ovarian was above 100 µM each time. For the same compound, the TGI in the assay on RPMI-8226 leukemia is 86.7 µM; with SF-268 CNS it was above 100 µM; in the assay with SW-620 colon, above 100 µM; in the assay on UO-31 renal it was above 100 µM.

As for `COc1cccc(-c2cc(=O)c3ccc(C)nc3[nH]2)c1`, the TGI in the assay on A549 NSCLC is above 100 µM; with CAKI-1 renal, above 81.8 µM; in the assay on HOP-62 NSCLC, above 64.6 µM; in the assay with K-562 leukemia, 0.0656 µM; in the assay with M14 melanoma it was above 100 µM; in the assay with OVCAR-4 ovarian, above 100 µM. The TGI was 1.78 µM with RPMI-8226 leukemia, above 89.7 µM in the assay on SF-268 CNS, above 100 µM in the assay with SW-620 colon and above 100 µM with UO-31 renal.
